Test results published in the supplement of paper PMC10307832.

Columns and labels:
Test in all cases: relative viability (nuclei count vs DMSO), 5 days (fraction); higher = more cells survive
[1] = test system: HOP-62
Procedure, shortened: (§1)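 Lung cancer cell lines, seeded in 1536-well plates, were treated the following day by pin tool with a single drug or with five library-drug doses (not always all listed) in √10 steps on top of a fixed anchor-drug dose. Cells were fixed and nuclei stained in one step after 5 days, and nuclei were counted. Relative viability is the nuclei count for treated wells divided by that for vehicle wells, reported as medians of duplicate plates.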

[2] = test system: SK-LU-1
Procedure, shortened: as §1

[3] = test system: NCI-H460
Procedure, shortened: as §1

[4] = test system: A-427
Procedure, shortened: as §1

[5] = test system: SW 1573
Procedure, shortened: as §1

[6] = test system: NCI-H647
Procedure, shortened: as §1

[7] = test system: LXF-289
Procedure, shortened: as §1

[8] = test system: NCI-H1915
Procedure, shortened: as §1

[9] = test system: LC-2-ad
Procedure, shortened: as §1

[10] = test system: NCI-H2126
Procedure, shortened: as §1

[11] = test system: NCI-H2347
Procedure, shortened: as §1

[12] = test system: NCI-H2342
Procedure, shortened: as §1

[13] = test system: LOU-NH91
Procedure, shortened: as §1

[14] = test system: NCI-H1755
Procedure, shortened: as §1

[15] = test system: NCI-H1975
Procedure, shortened: as §1

[16] = test system: NCI-H2228
Procedure, shortened: as §1

[17] = test system: RERF-LC-KJ
Procedure, shortened: as §1

[18] = test system: NCI-H358
Procedure, shortened: as §1

[19] = test system: HCC-15
Procedure, shortened: as §1

[20] = test system: PC-3 [JPC-3]
Procedure, shortened: as §1

[21] = test system: HCC-78
Procedure, shortened: as §1

[22] = test system: NCI-H1734
Procedure, shortened: as §1

Structure (SMILES): C=C1C(=O)O[C@@H](CCCCCCCC)[C@@H]1C(=O)O [C-75] + COc1cc2c(Oc3ccc(NC(=O)C4(C(=O)Nc5ccc(F)cc5)CC4)cc3F)ccnc2cc1OCCCN1CCOCC1 [Foretinib] (partner 0.25 µM)
- relative viability ([1]; first compound 0.08 µM): 1.1
- relative viability ([1]; first compound 0.253 µM): 1.06
- relative viability ([1]; first compound 0.8 µM): 1.14
- relative viability ([1]; first compound 2.53 µM): 0.966
- relative viability ([1]; first compound 8 µM): 1.09
- relative viability ([2]; first compound 0.08 µM): 0.794
- relative viability ([2]; first compound 0.253 µM): 0.721
- relative viability ([2]; first compound 0.8 µM): 0.881
- relative viability ([2]; first compound 2.53 µM): 0.736
- relative viability ([2]; first compound 8 µM): 0.766
- relative viability ([3]; first compound 0.08 µM): 1.01
- relative viability ([3]; first compound 0.253 µM): 1.09
- relative viability ([3]; first compound 0.8 µM): 0.891
- relative viability ([3]; first compound 8 µM): 0.977
- relative viability ([4]; first compound 0.08 µM): 0.898
- relative viability ([4]; first compound 0.253 µM): 1.18
- relative viability ([4]; first compound 0.8 µM): 0.969
- relative viability ([4]; first compound 2.53 µM): 1.03
- relative viability ([4]; first compound 8 µM): 0.992
- relative viability ([5]; first compound 0.08 µM): 1.03
- relative viability ([5]; first compound 0.253 µM): 0.943
- relative viability ([5]; first compound 0.8 µM): 0.951
- relative viability ([5]; first compound 2.53 µM): 0.74
- relative viability ([5]; first compound 8 µM): 0.731
- relative viability ([6]; first compound 0.08 µM): 1.23
- relative viability ([6]; first compound 0.253 µM): 1.12
- relative viability ([6]; first compound 0.8 µM): 0.998
- relative viability ([6]; first compound 2.53 µM): 1.18
- relative viability ([6]; first compound 8 µM): 0.97
- relative viability ([7]; first compound 0.08 µM): 0.949
- relative viability ([7]; first compound 0.253 µM): 0.965
- relative viability ([7]; first compound 0.8 µM): 0.932
- relative viability ([7]; first compound 2.53 µM): 0.654
- relative viability ([7]; first compound 8 µM): 0.948
- relative viability ([8]; first compound 0.08 µM): 1.04
- relative viability ([8]; first compound 0.253 µM): 1.1
- relative viability ([8]; first compound 0.8 µM): 1.03
- relative viability ([8]; first compound 2.53 µM): 1.07
- relative viability ([8]; first compound 8 µM): 1.05
- relative viability ([9]; first compound 0.08 µM): 0.937
- relative viability ([9]; first compound 0.253 µM): 0.8
- relative viability ([9]; first compound 0.8 µM): 0.859
- relative viability ([9]; first compound 2.53 µM): 0.724
- relative viability ([9]; first compound 8 µM): 0.889
- relative viability ([10]; first compound 0.08 µM): 1.1
- relative viability ([10]; first compound 0.253 µM): 1.27
- relative viability ([10]; first compound 0.8 µM): 1.2
- relative viability ([10]; first compound 2.53 µM): 1.08
- relative viability ([10]; first compound 8 µM): 1.07
- relative viability ([11]; first compound 0.08 µM): 0.83
- relative viability ([11]; first compound 0.253 µM): 1.21
- relative viability ([11]; first compound 2.53 µM): 0.876
- relative viability ([11]; first compound 8 µM): 0.472
- relative viability ([12]; first compound 0.08 µM): 1.11
- relative viability ([12]; first compound 0.253 µM): 1.13
- relative viability ([12]; first compound 0.8 µM): 1.04
- relative viability ([12]; first compound 2.53 µM): 0.923
- relative viability ([12]; first compound 8 µM): 1.17
- relative viability ([13]; first compound 0.08 µM): 0.938
- relative viability ([13]; first compound 0.253 µM): 0.873
- relative viability ([13]; first compound 0.8 µM): 0.903
- relative viability ([13]; first compound 2.53 µM): 0.914
- relative viability ([13]; first compound 8 µM): 0.948
- relative viability ([14]; first compound 0.08 µM): 0.922
- relative viability ([14]; first compound 0.253 µM): 0.886
- relative viability ([14]; first compound 0.8 µM): 0.94
- relative viability ([14]; first compound 2.53 µM): 0.888
- relative viability ([14]; first compound 8 µM): 0.878
- relative viability ([15]; first compound 0.08 µM): 0.917
- relative viability ([15]; first compound 0.253 µM): 0.834
- relative viability ([15]; first compound 0.8 µM): 0.974
- relative viability ([15]; first compound 2.53 µM): 0.785
- relative viability ([15]; first compound 8 µM): 0.878
- relative viability ([16]; first compound 0.08 µM): 0.803
- relative viability ([16]; first compound 0.253 µM): 0.919
- relative viability ([16]; first compound 0.8 µM): 0.85
- relative viability ([16]; first compound 2.53 µM): 0.839
- relative viability ([16]; first compound 8 µM): 0.863
- relative viability ([17]; first compound 0.08 µM): 0.94
- relative viability ([17]; first compound 0.253 µM): 0.973
- relative viability ([17]; first compound 0.8 µM): 0.909
- relative viability ([17]; first compound 2.53 µM): 0.797
- relative viability ([17]; first compound 8 µM): 0.961
- relative viability ([18]; first compound 0.08 µM): 0.748
- relative viability ([18]; first compound 0.253 µM): 0.623
- relative viability ([18]; first compound 0.8 µM): 0.565
- relative viability ([18]; first compound 2.53 µM): 0.595
- relative viability ([18]; first compound 8 µM): 0.511
- relative viability ([19]; first compound 0.08 µM): 0.949
- relative viability ([19]; first compound 0.253 µM): 1.01
- relative viability ([19]; first compound 0.8 µM): 0.956
- relative viability ([19]; first compound 2.53 µM): 1
- relative viability ([19]; first compound 8 µM): 0.931
- relative viability ([20]; first compound 0.08 µM): 1.05
- relative viability ([20]; first compound 0.253 µM): 1.02
- relative viability ([20]; first compound 0.8 µM): 1.06
- relative viability ([20]; first compound 2.53 µM): 1.06
- relative viability ([20]; first compound 8 µM): 1.2
- relative viability ([21]; first compound 0.08 µM): 0.553
- relative viability ([21]; first compound 0.253 µM): 0.554
- relative viability ([21]; first compound 0.8 µM): 0.577
- relative viability ([21]; first compound 2.53 µM): 0.421
- relative viability ([21]; first compound 8 µM): 0.687
- relative viability ([22]; first compound 0.08 µM): 0.942
- relative viability ([22]; first compound 0.253 µM): 0.819
- relative viability ([22]; first compound 0.8 µM): 0.78
- relative viability ([22]; first compound 2.53 µM): 0.476
- relative viability ([22]; first compound 8 µM): 0.748
